Assay results published in patent publication US9938240B2, “Fluorinated derivatives of 3-hydroxypyridin-4-ones” (Apotex Technologies Inc., priority 2009, dated 2018).

Tests used:
[1] = Distribution coefficient determination, D7.4 (1-octanol / K2HPO4 buffer); format: physicochemical; conditions: 1-octanol / K2HPO4 buffer 50 mM pH 7.4; for logD: read-out: Log D7.4
Procedure: K2HPO4 buffer (50 mM, pH=7.4) and 1-octanol were used as the aqueous phase and the organic phase, respectively. The K2HPO4 buffer and 1-octanol were mixed, and pre-saturated with each other before use.
In a typical experiment, an aqueous solution of Apo6995 (3-hydroxy-2-methyl-1-(2,2,2-trifluoroethyl)pyridin-4(1H)-one) was prepared by weighing out 3 mg of the compound into a 10-mL test-tube. It was then mixed with K2HPO4 buffer (2 mL) and sonicated for 30 minutes with frequent vortexing. The solution was then filtered through HPLC syringe filter (4 mm PVDF syringe filter 0.45 μM) to obtain the aqueous solution.
One mL of this aqueous solution was pipetted out into another 10-mL test-tube and mixed with 1 mL of 1-octanol. The mixture was then vortexed for 1 hour. The solution was centrifuged at 2000 rpm for 10 minutes. A small amount of the lower aqueous layer was carefully pipetted out and analyzed by HPLC to obtain the peak height (HF). The distribution coefficient, D7.4, was calculated using the following equation: D7.4=(HI−HF)/HF.

[2] = Oral cassette dosing PK/BBB studies; format: in vivo, male Sprague-Dawley rats; conditions: oral cassette dosing, male Sprague-Dawley rats; for AUC brain* / AUC: AUC normalized to 1 mg/kg dose; for Kp / AUC: rat; for Kp: brain and plasma, read-out: AUC brain/AUC plasma; for AUC: plasma
Procedure: In-vivo pharmacokinetic (PK) and blood brain barrier (BBB) studies were conducted in male Sprague-Dawley rats using cassette dosing via oral administration. […] No. 15, pp. 652-658.

[3] = tested on: human neuroblastoma MC-65 cells; assay: cells; conditions: for EC100 / minimal effective concentration: Homo sapiens, MC65, 48 h; for EC100: read-out: EC100 (maximum effective concentration); for minimal effective concentration: read-out: TH (threshold protective concentration); for CC2 (cytotoxic concentration): MC-65, cultured without tetracycline; for CC2 (cytotoxic concentration) / CC1 (cytotoxic concentration): viability below 80%; for CC1 (cytotoxic concentration): MC-65, presence of TET
Procedure: In this assay, human neuroblastoma cells (MC-65 cells) are genetically engineered to conditionally express amyloid β peptide (Aβ). The Aβ production is suppressed by tetracycline (TET+) presence in culture medium, and its production is activated when TET is withdrawn (TET−). The activation of Aβ production results in cell death “MC-65 suicide”.
Protective effect of compounds against edogenously produced amyloid beta (Aβ) was assessed in human neuroblastoma MC-65 cells. MC-65 cells have been stably transformed to conditionally express high levels of a partial amyloid precursor (AP) fusion protein (Bryce Sopher et al., Brain Res Mol Brain Res. 1994, 207-17.). This protein is further proteolitically processed in the cells to form a set of AP-derived Aβ peptides. […] Activity of the promoter is tightly regulated by the presence of the antibiotic tetracycline (TET) in the culture medium. In the presence of TET (TET+), the promoter is in the basal state and no amyloid beta peptide is synthesized. In the absence of TET (TET−) the promoter is in induced state, resulting in the accumulation of Aβ peptides in the cells, degenerative changes in cell morphology and decreased survival.
Transfected human neuroblastoma cells (MC-65) were cultured in DMEM (ATCC) supplemented with non-essential amino acids and 10% FBS (VWR) in the presence of TET (1 μg/mL). For the experiment, the cells were plated at 35,000 cells/cm^2 and grown for 1 day in the regular culture media prior to compound addition. On the day of the assay, culture supernatant was removed from the wells and cells were thoroughly washed once with the compound incubation matrix containing no FBS and no TET. MC-65 cells were treated with a test compound at pre-determined range of concentrations in a basal medium containing no FBS and in the absence or presence of 1 μg/mL TET for approximately 48 h. Cell viability was then measured using the MTT method.
For data analysis, cell viabilities relative to the control not treated with a test compound and maintained in the presence of TET were plotted against the compound concentration. […] Cytotoxicity of the test compound was assessed in the cells maintained in the presence of TET.

[4] = tested on: SH-SY5Y human neuroblastoma cells; conditions: for CC2 (cytotoxic concentration): H2O2-treated cells, viability below 80%; for CC1 (cytotoxic concentration): absence of H2O2, viability below 80%
Source text: Hydrogen peroxide (H2O2) is a major ROS (reactive oxidative species), which causes oxidative stress, and can induce apoptosis in many different cell types. One of the CNS drug design strategies is to use compounds with antioxidant properties as a possible treatment of both acute and chronic neurodegenerative diseases (Kang et al. Bioorganic & Medicinal Chemistry Letters, 2004, 14, 2261-2264). This involves testing the compounds of this invention for their protective effect against oxidative stress-induced cell death in SH-SY5Y human neuroblastoma cells. SH-SY5Y human neuroblastoma cells were cultured in DMEM (ATCC)/F12 (Cellgro) with 10% FBS. The cells were plated at 30,000 cells/cm^2 and grown for 1 day in the regular culture media prior to compound addition. Cells were routinely treated with the test compound, at a pre-determined range of concentrations, in the presence or absence of 50 μM hydrogen peroxide in a basal medium containing no FBS for 16-22 h. Cell viability was then measured using the routine MTT method (Mosmann, T., Rapid Colorimetric Assay for Cellular Growth and Survival: Application to Proliferation and Cytotoxicity Assays”. J. Immunol. Meth. 1983, 65, 55-63).
For data analysis, cell viability relative to control not treated with either H2O2 or the test compound, was plotted against the compound concentration. […] Cytotoxicity of the test compound was assessed in the absence of hydrogen peroxide.

Row | SMILES | D7.4 [1] | logD [1] | AUC brain* [2] [ng·h/mL] | Kp [2] | AUC [2] [ng·h/mL] | EC100 [3] [µM] | minimal effective concentration [3] [µM] | CC2 (cytotoxic concentration) [3] [µM] | CC1 (cytotoxic concentration) [3] [µM] | CC2 (cytotoxic concentration) [4] [µM] | CC1 (cytotoxic concentration) [4] [µM] | Log D7.4 [1]
1 | Cc1c(O)c(=O)ccn1CC(F)(F)F [Apo6995, 3-hydroxy-2-methyl-1-(2,2,2-trifluoroethyl)pyridin-4(1H)-one] | 2.51 | 0.4 | 300 | 1.2 | 260 | 20 | 0.1 | 80 | 80 | 320 | 320 | –
2 | Cc1c(Cl)c(=O)c(O)c(CC(F)(F)F)n1C [Apo7040, 3-chloro-5-hydroxy-1,2-dimethyl-6-(2,2,2-trifluoroethyl)pyridin-4(1H)-one] | 8.76 | 0.94 | – | – | – | 40 | 1 | 80 | 40 | >640 | 160 | –
3 | CN(C)C(c1c(O)c(=O)c(Cl)cn1C)C(F)(F)F (centres unmarked) [Apo7060, 5-chloro-2-[1-(dimethylamino)-2,2,2-trifluoroethyl]-3-hydroxy-1-methylpyridin-4(1H)-one] | 4.93 | 0.69 | – | – | – | 10 | 1 | 20 | 40 | >640 | 80 | –
4 | Cc1cc(=O)c(O)c(CN(C)C)n1CC(F)(F)F [Apo7065, 2-[(dimethylamino)methyl]-3-hydroxy-6-methyl-1-(2,2,2-trifluoroethyl)pyridin-4(1H)-one] | 4.93 | 0.69 | – | – | – | – | – | – | – | >640 | 40 | –
5 | Cn1cc(Cl)c(=O)c(O)c1CC(F)(F)F [Apo7066, 5-chloro-3-hydroxy-1-methyl-2-(2,2,2-trifluoroethyl)pyridin-4(1H)-one] | 4.69 | 0.67 | – | – | – | 10 | 0.1 | 80 | 80 | 160 | 160 | –
6 | Cc1c(O)c(=O)ccn1CC(F)F [Apo7069, 1-(2,2-difluoroethyl)-3-hydroxy-2-methylpyridin-4(1H)-one] | 0.66 | – | – | – | – | 40 | 0.1 | 80 | 80 | >640 | 80 | −0.18
7 | Cn1ccc(=O)c(O)c1CC(F)F [Apo7080, 2-(2,2-difluoroethyl)-3-hydroxy-1-methylpyridin-4(1H)-one] | – | – | 700 | 0.76 | 920 | 10 | 0.1 | 40 | 40 | >640 | 40 | –
8 | Cc1cc(=O)c(O)c(CN(C)C)n1CC(F)F [Apo7083, 1-(2,2-difluoroethyl)-2-[(dimethylamino)methyl]-3-hydroxy-6-methylpyridin-4(1H)-one] | 1.70 | 0.23 | – | – | – | 10 | 0.1 | 40 | 40 | – | – | –
9 | Cn1ccc(=O)c(O)c1C(C(F)F)N1CCCCC1 (centres unmarked) [Apo7319, 2-(2,2-difluoro-1-(piperidin-1-yl)ethyl)-3-hydroxy-1-methylpyridin-4(1H)-one] | – | – | – | – | – | 10 | 1 | 40 | 40 | 320 | 320 | –
10 | Cc1cc(=O)c(O)c(C(N2CCOCC2)C(F)(F)F)n1C (centres unmarked) [Apo7333, 3-hydroxy-1,6-dimethyl-2-(2,2,2-trifluoro-1-morpholinoethyl)pyridin-4(1H)-one] | – | – | – | – | – | 10 | 1 | 40 | 20 | 320 | 320 | –
11 | Cc1cc(=O)c(O)c(C(N2CCN(Cc3ccccc3)CC2)C(F)(F)F)n1C (centres unmarked) [Apo7334, 2-(1-(4-benzylpiperazin-1-yl)-2,2,2-trifluoroethyl)-3-hydroxy-1,6-dimethylpyridin-4(1H)-one] | – | – | – | – | – | 10 | 1 | 20 | 10 | 320 | 40 | –
12 | Cc1cc(=O)c(O)c(C(N2CCN(c3ccccc3)CC2)C(F)(F)F)n1C (centres unmarked) [Apo7335, 3-hydroxy-1,6-dimethyl-2-(2,2,2-trifluoro-1-(4-phenylpiperazin-1-yl)ethyl)pyridin-4(1H)-one] | – | – | – | – | – | 10 | 1 | 20 | 20 | 80 | 80 | –
13 | Cc1cc(=O)c(O)c(C(N2CCN(c3ccccn3)CC2)C(F)(F)F)n1C (centres unmarked) [Apo7336, 3-hydroxy-1,6-dimethyl-2-(2,2,2-trifluoro-1-(4-(pyridin-2-yl)piperazin-1-yl)ethyl)pyridin-4(1H)-one] | – | – | – | – | – | 10 | 1 | 20 | 10 | 80 | 80 | –
14 | Cc1cc(=O)c(O)c(CN2CCOCC2)n1CC(F)(F)F [Apo7434, 3-hydroxy-6-methyl-2-(morpholinomethyl)-1-(2,2,2-trifluoroethyl)pyridin-4(1H)-one] | – | – | – | – | – | 20 | 1 | 40 | 40 | 320 | 320 | –
15 | Oc1c(I)cc(Cl)c2cccnc12 [Clioquinol, reference compound] | – | – | 42 | 1.5 | 28 | – | – | – | – | – | – | –
